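Five compound concentrations were applied to cells in 96-well plates for 48 hours; endpoints were derived by simple linear interpolation of the resulting dose-response curve. TGI is the concentration that stops growth completely.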
Assays:
Experiment in all cases: NCI anticancer screen, dose series, 48 h
[1] = test system: 786-0 renal
[2] = test system: A549 NSCLC
[3] = test system: ACHN renal
[4] = test system: BT-549 breast
[5] = test system: CAKI-1 renal
[6] = test system: CCRF-CEM leukemia
[7] = test system: COLO 205 colon
[8] = test system: DU-145 prostate
[9] = test system: EKVX NSCLC
[10] = test system: HCC-2998 colon
[11] = test system: HCT-116 colon
[12] = test system: HCT-15 colon
[13] = test system: HL-60(TB) leukemia
[14] = test system: HOP-62 NSCLC
[15] = test system: HOP-92 NSCLC
[16] = test system: HS 578T breast
[17] = test system: HT29 colon
[18] = test system: IGROV1 ovarian
[19] = test system: K-562 leukemia
[20] = test system: KM12 colon
[21] = test system: LOX IMVI melanoma
[22] = test system: M14 melanoma
[23] = test system: MALME-3M melanoma
[24] = test system: MCF7 breast
[25] = test system: MDA-MB-231 breast
[26] = test system: MDA-MB-435
[27] = test system: MDA-N
[28] = test system: MOLT-4 leukemia
[29] = test system: NCI-H226 lung
[30] = test system: NCI-H23 lung
[31] = test system: NCI-H460 lung
[32] = test system: NCI/ADR-RES ovarian
[33] = test system: OVCAR-3 ovarian
[34] = test system: OVCAR-4 ovarian
[35] = test system: OVCAR-5 ovarian
[36] = test system: OVCAR-8 ovarian
[37] = test system: PC-3 prostate
[38] = test system: RPMI-8226 leukemia
[39] = test system: RXF 393 renal
[40] = test system: SF-268 CNS
[41] = test system: SF-295 CNS
[42] = test system: SF-539 CNS
[43] = test system: SK-MEL-2 melanoma
[44] = test system: SK-MEL-28 melanoma
[45] = test system: SK-MEL-5 melanoma
[46] = test system: SK-OV-3 ovarian
[47] = test system: SN12C renal
[48] = test system: SNB-19 CNS
[49] = test system: SNB-75 CNS
[50] = test system: SR leukemia
[51] = test system: SW-620 colon
[52] = test system: T-47D breast
[53] = test system: TK-10 renal
[54] = test system: U251 CNS
[55] = test system: UACC-257 melanoma
[56] = test system: UACC-62 melanoma
[57] = test system: UO-31 renal
[58] = test system: NCI-H522 lung

Question: For `CC(C)CC1NC(=O)CCC(NC(=O)C(Cc2ccc(O)cc2)NC(=O)OCc2ccccc2)C(=O)NC(Cc2ccccc2)C(=O)NC(Cc2ccccc2)NC1=O` (configuration not stated), which TGI [1] is on record?
Answer: The TGI was greater than 100 µM.

Question: What about the TGI [2] of the same compound?
Answer: Its TGI is greater than 100 µM.

Question: And the TGI [3]?
Answer: The TGI was greater than 100 µM.

Question: What about the TGI [4] of the same compound?
Answer: The TGI was greater than 100 µM.

Question: What about the TGI [5] of the same compound?
Answer: Its TGI is greater than 100 µM.

Question: And the TGI [6]?
Answer: Its TGI is greater than 100 µM.

Question: What about the TGI [7] of the same compound?
Answer: Its TGI is greater than 100 µM.

Question: What about the TGI [8] of the same compound?
Answer: The TGI was greater than 100 µM.

Question: And the TGI [9]?
Answer: The TGI was greater than 100 µM.

Question: What about the TGI [10] of the same compound?
Answer: The TGI was greater than 100 µM.

Question: What about the TGI [11] of the same compound?
Answer: Its TGI is greater than 100 µM.

Question: And the TGI [12]?
Answer: Its TGI is greater than 100 µM.

Question: And the TGI [13]?
Answer: The TGI was greater than 100 µM.

Question: And the TGI [14]?
Answer: The TGI was greater than 100 µM.

Question: What about the TGI [15] of the same compound?
Answer: Its TGI is greater than 100 µM.

Question: And the TGI [16]?
Answer: Its TGI is greater than 100 µM.

Question: And the TGI [17]?
Answer: Its TGI is greater than 100 µM.

Question: And the TGI [18]?
Answer: Its TGI is greater than 100 µM.

Question: And the TGI [19]?
Answer: The TGI was greater than 100 µM.

Question: And the TGI [20]?
Answer: Its TGI is greater than 100 µM.

Question: What about the TGI [21] of the same compound?
Answer: The TGI was greater than 100 µM.

Question: And the TGI [22]?
Answer: The TGI was greater than 100 µM.

Question: And the TGI [23]?
Answer: The TGI was greater than 100 µM.

Question: What about the TGI [24] of the same compound?
Answer: Its TGI is greater than 100 µM.

Question: What about the TGI [25] of the same compound?
Answer: Its TGI is greater than 100 µM.

Question: And the TGI [26]?
Answer: The TGI was greater than 100 µM.

Question: What about the TGI [27] of the same compound?
Answer: Its TGI is greater than 100 µM.

Question: And the TGI [28]?
Answer: Its TGI is greater than 100 µM.

Question: What about the TGI [29] of the same compound?
Answer: Its TGI is greater than 100 µM.

Question: And the TGI [30]?
Answer: The TGI was greater than 100 µM.

Question: And the TGI [31]?
Answer: Its TGI is greater than 100 µM.

Question: What about the TGI [32] of the same compound?
Answer: The TGI was greater than 100 µM.

Question: And the TGI [33]?
Answer: Its TGI is greater than 100 µM.

Question: And the TGI [34]?
Answer: The TGI was greater than 100 µM.

Question: And the TGI [35]?
Answer: Its TGI is greater than 100 µM.

Question: What about the TGI [36] of the same compound?
Answer: Its TGI is greater than 100 µM.

Question: And the TGI [37]?
Answer: Its TGI is greater than 100 µM.

Question: What about the TGI [38] of the same compound?
Answer: The TGI was greater than 100 µM.

Question: What about the TGI [39] of the same compound?
Answer: The TGI was greater than 100 µM.

Question: What about the TGI [40] of the same compound?
Answer: The TGI was greater than 100 µM.

Question: And the TGI [41]?
Answer: The TGI was greater than 100 µM.

Question: And the TGI [42]?
Answer: Its TGI is greater than 100 µM.

Question: And the TGI [43]?
Answer: Its TGI is greater than 100 µM.

Question: And the TGI [44]?
Answer: The TGI was greater than 100 µM.

Question: And the TGI [45]?
Answer: Its TGI is greater than 100 µM.

Question: And the TGI [46]?
Answer: The TGI was greater than 100 µM.

Question: And the TGI [47]?
Answer: The TGI was greater than 100 µM.

Question: What about the TGI [48] of the same compound?
Answer: The TGI was greater than 100 µM.

Question: What about the TGI [49] of the same compound?
Answer: Its TGI is greater than 100 µM.

Question: What about the TGI [50] of the same compound?
Answer: The TGI was greater than 100 µM.

Question: And the TGI [51]?
Answer: Its TGI is greater than 100 µM.

Question: What about the TGI [52] of the same compound?
Answer: Its TGI is greater than 100 µM.

Question: And the TGI [53]?
Answer: The TGI was greater than 100 µM.

Question: What about the TGI [54] of the same compound?
Answer: The TGI was greater than 100 µM.

Question: What about the TGI [55] of the same compound?
Answer: The TGI was greater than 100 µM.

Question: What about the TGI [56] of the same compound?
Answer: Its TGI is greater than 100 µM.

Question: And the TGI [57]?
Answer: The TGI was greater than 100 µM.

Question: Which results are given for `Cc1ccc(O)c(C2=NNC(c3cccc(Cl)c3)C2)c1` (configuration not stated)?
Answer: TGI [1]: > 100 µM; TGI [2]: > 100 µM; TGI [3]: > 100 µM; TGI [4]: > 100 µM; TGI [5]: > 100 µM; TGI [6]: > 100 µM; TGI [7]: > 100 µM; TGI [8]: > 100 µM; TGI [9]: > 100 µM; TGI [11]: > 100 µM; TGI [12]: 29.3 µM; TGI [13]: > 100 µM; TGI [14]: > 100 µM; TGI [15]: 81.7 µM; TGI [16]: 86.3 µM; TGI [17]: > 100 µM; TGI [18]: 48.8 µM; TGI [19]: > 100 µM; TGI [20]: > 100 µM; TGI [21]: > 100 µM; TGI [22]: > 100 µM; TGI [23]: > 100 µM; TGI [24]: > 100 µM; TGI [25]: > 100 µM; TGI [26]: 44.5 µM; TGI [27]: 88.1 µM; TGI [28]: > 100 µM; TGI [29]: > 100 µM; TGI [30]: > 100 µM; TGI [31]: > 100 µM; TGI [58]: 53.6 µM; TGI [32]: > 100 µM; TGI [33]: > 100 µM; TGI [34]: 94 µM; TGI [35]: > 100 µM; TGI [36]: > 100 µM; TGI [37]: > 100 µM; TGI [38]: 88.3 µM; TGI [39]: 64.6 µM; TGI [40]: > 100 µM; TGI [41]: > 100 µM; TGI [42]: > 100 µM; TGI [43]: 94.1 µM; TGI [45]: > 100 µM; TGI [46]: > 100 µM; TGI [47]: > 100 µM; TGI [48]: 55.8 µM; TGI [50]: > 100 µM; TGI [51]: > 100 µM; TGI [52]: > 100 µM; TGI [53]: > 100 µM; TGI [54]: > 100 µM; TGI [55]: > 100 µM; TGI [56]: > 100 µM; TGI [57]: > 100 µM

From PubChem BioAssay (NCI)
